Results taken from US20220289685A1, “ANTIMALARIAL HEXAHYDROPYRIMIDINE ANALOGUES” (UCB BIOPHARMA SRL, priority 2019, published 2022).
Structures can show the parent of a compound that is named as a salt.

These molecules were tested on Plasmodium falciparum 3D7 strain (assay: P. falciparum 3D7 asexual blood stage assay (SYBR green readout)). Settings: P. falciparum 3D7 in human erythrocytes, 72 h incubation, SYBR green fluorescence; read-out: IC50.
Type: cell-based
In short: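 P. falciparum 3D7 in A+ erythrocytes (5% haematocrit, 0.5% parasitaemia) exposed 72 h at 37 °C under 1% O2/3% CO2 to 20-point 1.5-fold titrations, 50,000–15 nM in 0.5% DMSO. SYBR green lysis overnight, fluorescence 485/528 nm; normalized to mefloquine and DMSO, EC50 from biphasic two-site fit.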
`COc1ncccc1C(=O)Nc1cccc([C@]2(C)CC(=O)N([C@@H]3CCO[C@H](C)C3)C(=N)N2)c1Cl` (relative stereo) [Example 30, N-(2-Chloro-3-{(4S)-2-imino-4-methyl-1-[(2R*,4R*)-2-methyl-etrahydropyran-4-yl]-6-oxo-hexahydropyrimidin-4-yl]phenyl)-2-methoxypyridine-3-carboxamide trifluoroacetic acid salt] was tested, and the IC50 was 15 nM.

Same assay, conditions: Plasmodium falciparum, 3D7, Erythrocyte, 72 h
With `C[C@@H]1C[C@H](N2C(=N)N[C@](C)(c3cccc(NC(=O)c4cnccc4F)c3Cl)CC2=O)CCO1` (relative stereo) [Example 96, N-(2-Chloro-3-{(4S)-2-imino-4-methyl-1-[(2R*,4R*)-2-methyl-tetrahydropyran-4-yl]-6-oxo-hexahydropyrimidin-4-yl}phenyl)-4-fluoropyridine-3-carboxamide hydrochloride] the IC50 was 565 nM. With `C[C@@H]1C[C@H](N2C(=N)N[C@](C)(c3cccc(NC(=O)c4cc(F)cc(C#N)c4)c3Cl)CC2=O)CCO1` (relative stereo) [Example 99, N-(2-Chloro-3-{(4S)-2-imino-4-methyl-1-[(2R*,4R*)-2-methyl-tetrahydropyran-4-yl]-6-oxo-hexahydropyrimidin-4-yl}phenyl)-3-cyano-5-fluorobenzamide hydrochloride] the IC50 was 18 nM. `C[C@@H]1C[C@H](N2C(=N)N[C@](C)(c3cccc(NC(=O)c4cncnc4)c3Cl)CC2=O)CCO1` (relative stereo) [Example 38, N-(2-Chloro-3-{(4S)-2-imino-4-methyl-1-[(2R*,4R*)-2-methyl-tetrahydropyran-4-yl]-6-oxo-hexahydropyrimidin-4-yl]phenyl)-pyrimidine-5-carboxamide trifluoroacetic acid salt] gave an IC50 of 110 nM. Work on `C[C@@H]1C[C@H](N2C(=N)N[C@](C)(c3cccc(NC(=O)c4ncc5ccccn45)c3Cl)CC2=O)CCO1` (relative stereo) [Example 65, N-(2-Chloro-3-{(4S)-2-imino-4-methyl-1-[(2R*,4R*)-2-methyl-tetrahydropyran-4-yl]-6-oxo-hexahydropyrimidin-4-yl]phenyl)-imidazo[1,5-a]pyridine-3-carboxamide hydrochloride] yielded an IC50 of 51 nM. With `C[C@@H]1C[C@H](N2C(=N)N[C@](C)(c3cccc(NC(=O)c4cncc(C#N)c4)c3Cl)CC2=O)CCO1` (relative stereo) [Example 74, N-(2-Chloro-3-{(4S)-2-imino-4-methyl-1-[(2R*,4R*)-2-methyl-tetrahydropyran-4-yl]-6-oxo-hexahydropyrimidin-4-yl}phenyl)-5-cyanopyridine-3-carboxamide hydrochloride] the IC50 was 109 nM. Molecule `C[C@@H]1C[C@H](N2C(=N)N[C@](C)(c3cccc(NC(=O)c4ccccc4Cl)c3Cl)CC2=O)CCO1` (relative stereo) [Example 12, 2-Chloro-N-(2-chloro-3-{(4S)-2-imino-4-methyl-1-[(2R*,4R*)-2-methyltetrahydropyran-4-yl]-6-oxo-hexahydropyrimidin-4-yl}phenyl)-benzamide hydrochloride] has an IC50 of 23 nM. `C[C@@H]1C[C@H](N2C(=N)N[C@](C)(c3cccc(NC(=O)c4cncc(Cl)c4)c3Cl)CC2=O)CCO1` (relative stereo) [Example 39, 5-Chloro-N-(2-chloro-3-{(4S)-2-imino-4-methyl-1-[(2R*,4R*)-2-methyltetrahydropyran-4-yl]-6-oxo-hexahydropyrimidin-4-yl}phenyl)-pyridine-3-carboxamide trifluoroacetic acid salt] showed an IC50 of 19 nM. For `COc1ccc2ccccc2c1C(=O)Nc1cccc([C@]2(C)CC(=O)N([C@@H]3CCO[C@H](C)C3)C(=N)N2)c1Cl` (relative stereo) [Example 79, N-(2-Chloro-3-{(4S)-2-imino-4-methyl-1-[(2R*,4R*)-2-methyl-tetrahydropyran-4-yl]-6-oxo-hexahydropyrimidin-4-yl]phenyl)-2-methoxynaphthalene-1-carboxamide trifluoroacetic acid salt], the IC50 was 61 nM. `C[C@@H]1C[C@H](N2C(=N)N[C@](C)(c3cccc(NC(=O)c4ccc(Cl)c(C#N)c4)c3Cl)CC2=O)CCO1` (relative stereo) [Example 117, 4-Chloro-N-(2-chloro-3-{(4S)-2-imino-4-methyl-1-[(2R*,4R*)-2-methyltetrahydropyran-4-yl]-6-oxo-hexahydropyrimidin-4-yl}phenyl)-3-cyanobenzamide trifluoroacetic acid salt] showed an IC50 of 17 nM. `C[C@@H]1C[C@H](N2C(=N)N[C@](C)(c3cccc(NC(=O)c4ccc(F)cc4)c3Cl)CC2=O)CCO1` (relative stereo) [Example 3, N-(2-Chloro-3-{(4S)-2-imino-4-methyl-1-[(2R*,4R*)-2-methyl-tetrahydropyran-4-yl]-6-oxo-hexahydropyrimidin-4-yl]phenyl)-4-fluorobenzamide hydrochloride] showed an IC50 of 132 nM. Work on `C[C@@H]1C[C@H](N2C(=N)N[C@](C)(c3cccc(NC(=O)c4cn(C)c5ccccc45)c3Cl)CC2=O)CCO1` (relative stereo) [Example 27, N-(2-Chloro-3-{(4S)-2-imino-4-methyl-1-[(2R*,4R*)-2-methyl-tetrahydropyran-4-yl]-6-oxo-hexahydropyrimidin-4-yl}phenyl)-1-methylindole-3-carboxamide trifluoroacetic acid salt] yielded an IC50 of 29 nM. In the case of `C[C@@H]1C[C@H](N2C(=N)N[C@](C)(c3cccc(NC(=O)c4ncc(Cl)cn4)c3Cl)CC2=O)CCO1` (relative stereo) [Example 92, 5-Chloro-N-(2-chloro-3-{(4S)-2-imino-4-methyl-1-[(2R*,4R*)-2-methyltetrahydropyran-4-yl]-6-oxo-hexahydropyrimidin-4-yl]phenyl)-pyrimidine-2-carboxamide hydrochloride], the IC50 is reported as 28 nM. Work on `COc1cccnc1C(=O)Nc1cccc([C@]2(C)CC(=O)N([C@@H]3CCO[C@H](C)C3)C(=N)N2)c1Cl` (relative stereo) [Example 50, N-(2-Chloro-3-{(4S)-2-imino-4-methyl-1-[(2R*,4R*)-2-methyl-tetrahydropyran-4-yl]-6-oxo-hexahydropyrimidin-4-yl}phenyl)-3-methoxypyridine-2-carboxamide trifluoroacetic acid salt] yielded an IC50 of 56 nM. With `C[C@@H]1C[C@H](N2C(=N)N[C@](C)(c3cccc(NC(=O)c4ncc(F)cc4C(F)(F)F)c3Cl)CC2=O)CCO1` (relative stereo) [Example 94, N-(2-Chloro-3-{(4S)-2-imino-4-methyl-1-[(2R*,4R*)-2-methyl-tetrahydropyran-4-yl]-6-oxo-hexahydropyrimidin-4-yl}phenyl)-5-fluoro-3-(trifluoromethyl)-pyridine-2-carboxamide hydrochloride] the IC50 was 81 nM. `C[C@@H]1C[C@H](N2C(=N)N[C@](C)(c3cccc(NC(=O)c4cnc5ccccc5c4)c3Cl)CC2=O)CCO1` (relative stereo) [Example 33, N-(2-Chloro-3-{(4S)-2-imino-4-methyl-1-[(2R*,4R*)-2-methyl-tetrahydropyran-4-yl]-6-oxo-hexahydropyrimidin-4-yl}phenyl)-quinoline-3-carboxamide trifluoroacetic acid salt] gave an IC50 of 54 nM. For `C[C@@H]1C[C@H](N2C(=N)N[C@](C)(c3cccc(NC(=O)c4ccccc4F)c3Cl)CC2=O)CCO1` (relative stereo) [Example 35, N-(2-Chloro-3-{(4S)-2-imino-4-methyl-1-[(2R*,4R*)-2-methyl-tetrahydropyran-4-yl]-6-oxo-hexahydropyrimidin-4-yl}phenyl)-2-fluorobenzamide trifluoroacetic acid salt], the IC50 was 11 nM. `C[C@@H]1C[C@H](N2C(=N)N[C@](C)(c3cccc(NC(=O)c4cc(N5CCOCC5)ccn4)c3Cl)CC2=O)CCO1` (relative stereo) [Example 93, N-(2-Chloro-3-{(4S)-2-imino-4-methyl-1-[(2R*,4R*)-2-methyl-tetrahydropyran-4-yl]-6-oxo-hexahydropyrimidin-4-yl]phenyl)-4-(morpholin-4-yl)pyridine-2-carboxamide hydrochloride] gave an IC50 of 47 nM. `C[C@@H]1C[C@H](N2C(=N)N[C@](C)(c3cccc(NC(=O)c4cnccc4C(F)(F)F)c3Cl)CC2=O)CCO1` (relative stereo) [Example 56, N-(2-Chloro-3-{(4S)-2-imino-4-methyl-1-[(2R*,4R*)-2-methyl-tetrahydropyran-4-yl]-6-oxo-hexahydropyrimidin-4-yl}phenyl)-4-(trifluoromethyl)pyridine-3-carboxamide hydrochloride] gave an IC50 of 21 nM. In the case of `C[C@@H]1C[C@H](N2C(=N)N[C@](C)(c3cccc(NC(=O)c4cc(Cl)c(F)cc4F)c3Cl)CC2=O)CCO1` (relative stereo) [Example 69, 5-Chloro-N-(2-chloro-3-{(4S)-2-imino-4-methyl-1-[(2R*,4R*)-2-methyltetrahydropyran-4-yl]-6-oxo-hexahydropyrimidin-4-yl}phenyl)-2,4-difluorobenzamide hydrochloride], the IC50 is reported as 25 nM.

Same assay, conditions: Plasmodium falciparum, Erythrocyte; P. falciparum 3D7 in human erythrocytes, 72 h incubation, SYBR green fluorescence; read-out: IC50
Molecule `C[C@@H]1C[C@H](N2C(=N)N[C@](C)(c3cccc(NC(=O)c4c(F)cc(F)cc4F)c3Cl)CC2=O)CCO1` (relative stereo) [Example 101, N-(2-Chloro-3-{(4S)-2-imino-4-methyl-1-[(2,R*,4R*)-2-methyl-tetrahydropyran-4-yl]-6-oxo-hexahydropyrimidin-4-yl]phenyl)-2,4,6-trifluorobenzamide hydrochloride] has an IC50 of 85 nM. `C[C@@H]1C[C@H](N2C(=N)N[C@](C)(c3cccc(NC(=O)c4ccc[n+]([O-])c4)c3Cl)CC2=O)CCO1` (relative stereo) [Example 112, N-(2-Chloro-3-{(4S)-2-imino-4-methyl-1-[(2R*,4R*)-2-methyl-tetrahydropyran-4-yl]-6-oxo-hexahydropyrimidin-4-yl]phenyl)-1-oxidopyridin-1-ium-3-carboxamide hydrochloride] showed an IC50 of 707 nM.
